The results in this text go back to publication PMC8744835, “Sterically Hindered Quaternary Phosphonium Salts (QPSs): Antimicrobial Activity and Hemolytic and Cytotoxic Properties” (International Journal of Molecular Sciences, 2021).

In one series the test system is human erythrocytes. The series is described as follows: Hemolytic activity. It is filed as cell-based. Particulars: red blood cells. An excerpt:
An important characteristic when assessing the biological activity of new chemical compounds is their cytotoxic effect on eukaryotic cells. The ability of an investigated compound to cause the destruction of human erythrocytes illustrates its toxic effect on the internal environment. The hemolysis assay is a simple screening test that can help in the study of cytotoxicity in more complex models. Cell lines obtained from various human organs and tissues that allow for adequate estimation of the effects of new potential drugs on cell metabolism can serve as experimental models.
The hemolytic activity of the QPSs was estimated by comparing the optical density of a solution containing the test compound with that of blood at 100% hemolysis. The experiments were carried out as previously described.

The subject of the next series is Chang liver cell line. The series is described as follows: Cytotoxicity assay (Cytell Cell Imaging, DAPI/propidium iodide). It is filed as cell-based, human. The note with it: for IC50: Homo sapiens, Chang liver, read-out: IC50 (concentration that causes the death of 50% of the cells), Chang liver cells; for IC50 (concentration that causes the death of 50% of the cells): Chang liver cells.

In series [1] the test system is Staphylococcus aureus ATCC 6538P FDA 209P. Kind of series: Antimicrobial activity, serial dilution technique in Mueller–Hinton Broth 2. It is filed as cell-based. The note with it: average of three ± SD, - means non-active; for MIC / MBC: Staphylococcus aureus, Sa; for MIC: read-out: Minimum Inhibitory Concentration (MIC), Sa; for MBC: read-out: Minimum Bactericidal and Fungicidal Concentration (MBC, MFC), Sa. The essentials:
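Antimicrobial activity against Staphylococcus aureus ATCC 6538P FDA 209P was measured by serial dilution in Mueller–Hinton Broth 2 at a bacterial load of 3.0 × 10^5 cfu/mL. Cultures were incubated at 37 °C, growth was recorded every 24 h for 5 days, and the experiment was done three times.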

The subject of series [2] is Enterococcus faecalis ATCC 2921. Described as above. It is filed as cell-based. Particulars: average of three ± SD, - means non-active; for MIC / MBC: Enterococcus faecalis, ATCC2921, Ef; for MIC: read-out: Minimum Inhibitory Concentration (MIC), Ef; for MBC: read-out: Minimum Bactericidal and Fungicidal Concentration (MBC, MFC), Ef. The essentials: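 Antibacterial activity against Enterococcus faecalis ATCC 2921 was assessed by serial dilution in Mueller–Hinton Broth 2 with a bacterial load of 3.0 × 10^5 cfu/mL. Cultures were incubated at 37 °C, with growth recorded every 24 h for 5 days, and the experiment was performed three times.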

Series [3] relates to Bacillus cereus ATCC 10702 NCTC 8035. The series is described as above. It is filed as cell-based. The note with it: average of three ± SD, - means non-active; for MIC: read-out: Minimum Inhibitory Concentration (MIC), Bc. The essentials:
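Antibacterial activity against Bacillus cereus ATCC 10702 NCTC 8035 was measured by serial dilution in Mueller–Hinton Broth 2 at a bacterial load of 3.0 × 10^5 cfu/mL. Cultures were kept at 37 °C and growth was read every 24 h for 5 days. The experiment was done three times, and MIC and bactericidal concentrations were determined.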

The test system of series [4] is methicillin-resistant S. aureus MRSA-2. The series is described as above. The note with it: - means non-active; for MIC / Minimum Inhibitory Concentration (MIC), MRSA-2: MRSA-2 (resistant to beta-lactams); for MIC: read-out: Minimum Inhibitory Concentration (MIC), MRSA-2. It is filed as cell-based, Staphylococcus aureus. The essentials: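 Antimicrobial activity against methicillin-susceptible Staphylococcus aureus MRSA-2, a beta-lactam-resistant clinical isolate from a sinusitis patient at the Republican Clinical Hospital (Kazan), was assessed by serial dilution in Mueller–Hinton Broth 2. The inoculum was 3.0 × 10^5 cfu/mL. Cultures were incubated at 37 °C and read every 24 h for 5 days, in three repeat experiments.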

For series [5], the system named is Escherichia coli ATCC 25922. The description is as above. It is filed as cell-based. The note with it: average of three ± SD, - means non-active; for MBC: Escherichia coli, ATCC25922, Ec, read-out: Minimum Bactericidal and Fungicidal Concentration (MBC, MFC), Ec.
The subject of series [6] is Escherichia coli ATCC 25922. Described as above. It is filed as cell-based. The note with it: average of three ± SD, - means non-active; for MIC: Escherichia coli, ATCC25922, Ec, read-out: Minimum Inhibitory Concentration (MIC), Ec. The essentials:
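Compounds were serially diluted in Mueller–Hinton Broth 2 and inoculated at 3.0 × 10^5 cfu/mL. Cultures were then incubated at 37 °C with growth recorded daily for 5 days. The MIC was taken as the minimum concentration inhibiting growth, from three experiments.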

Series [7] concerns methicillin-resistant S. aureus MRSA-1. The series is described as above. Particulars: - means non-active; for Minimum Inhibitory Concentration (MIC), MRSA-1 / MIC: MRSA-1 (resistant to fluoroquinolones and beta-lactams); for MIC: read-out: Minimum Inhibitory Concentration (MIC), MRSA-1. It is filed as cell-based, Staphylococcus aureus. The essentials:
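Antimicrobial activity against methicillin-susceptible Staphylococcus aureus MRSA-1, a hospital isolate from a chronic tonsillitis patient that is resistant to fluoroquinolones and beta-lactams, was determined by serial dilution in Mueller–Hinton Broth 2. The bacterial load was 3.0 × 10^5 cfu/mL, incubation was at 37 °C, and growth was recorded every 24 h for 5 days.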

The test system of series [8] is Trichophyton mentagrophytes var. gypseum 1773. The series is described as follows: Fungicidal activity, serial dilution technique. It is filed as cell-based. Particulars: Tm, average of three ± SD, - means non-active. The essentials: (§1)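 Inoculum 3.0 × 10^5 cfu/mL; serial dilution, MH Broth 2; 37 °C; read q24 h × 5 d; MIC = lowest inhibitory conc.; n = 3.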
In series [9] the test system is Candida albicans ATCC 10231. The series is described as follows: Fungicidal activity, serial dilution technique. It is filed as cell-based. The note with it: average of three ± SD, - means non-active. The essentials:
as §1

With `CCCCCCC[P+](C(C)(C)C)(C(C)(C)C)C(C)(C)C` [Compound 7a], the “HC50 (concentration that causes 50% hemolysis of erythrocytes)” value with human erythrocytes is over 125 µg/mL. Besides, the IC50 in the series on Chang liver cell line is over 100 µg/mL. Moreover, the MIC in series [1] stood at 62.5 ± 5.5 µg/mL; in series [2], 125 µg/mL; in series [3] (Bacillus cereus, Bc), 125 ± 10 µg/mL.

As for `CCCCCCCC[P+](C(C)(C)C)(C(C)(C)C)C(C)(C)C` [Compound 8a], in the series on human erythrocytes, the “HC50 (concentration that causes 50% hemolysis of erythrocytes)” value was over 125 µg/mL. In addition, the IC50 in the series with Chang liver cell line is over 100 µg/mL. Moreover, the MIC in [4] (Staphylococcus aureus, MRSA) was determined as 31.3 µg/mL; in series [2], 62.5 µg/mL; in series [3] (Bacillus cereus, Bc), 31.3 µg/mL; in series [6], 125 µg/mL. Besides, the MBC was found to be 125 µg/mL in series [5] and 62.5 µg/mL in series [1].

As for `CCCCCCCC[P+](C(C)(C)C)(C(C)(C)C)C(C)(C)C` [Compound 8b], the “HC50 (concentration that causes 50% hemolysis of erythrocytes)” value in the series on human erythrocytes was over 125 µg/mL. For the same molecule, the “IC50 (concentration that causes the death of 50% of the cells)” value in the series with Chang liver cell line was over 100 µg/mL. The “Minimum Inhibitory Concentration (MIC), MRSA-1” value in series [7] was 31.3 µg/mL. Besides, in [1], the “Minimum Bactericidal and Fungicidal Concentration (MBC, MFC), Sa” value is reported as 31.3 µg/mL; the “Minimum Inhibitory Concentration (MIC), Sa” value was 31.3 µg/mL. The MBC in [2] was determined as 125 µg/mL.

On to `CCCCCCCCC[P+](C(C)(C)C)(C(C)(C)C)C(C)(C)C` [Compound 9a], for which the “HC50 (concentration that causes 50% hemolysis of erythrocytes)” value with human erythrocytes is over 125 µg/mL. The IC50 in the series on Chang liver cell line was over 100 µg/mL. Further, the MIC stood at 7.8 µg/mL in series [7] (Staphylococcus aureus, MRSA); 7.8 µg/mL in series [1]; 62.5 µg/mL in series [2]; 125 µg/mL in [6]. Moreover, the MBC in [5] was determined as 125 µg/mL; in [1], 15.6 µg/mL; in series [2] it was 125 µg/mL; in series [3] (Bacillus cereus, Bc, read-out: Minimum Bactericidal and Fungicidal Concentration (MBC, MFC), Bc), 125 µg/mL.

As for `CCCCCCCCC[P+](C(C)(C)C)(C(C)(C)C)C(C)(C)C` [Compound 9b], in the series on human erythrocytes, the “HC50 (concentration that causes 50% hemolysis of erythrocytes)” value is over 125 µg/mL. Moreover, the “IC50 (concentration that causes the death of 50% of the cells)” value with Chang liver cell line is over 100 µg/mL. For the same molecule, the “Minimum Inhibitory Concentration (MIC), MRSA-2” value in [4] worked out at 31.3 µg/mL. The “Minimum Bactericidal and Fungicidal Concentration (MBC, MFC), Ec” value in series [5] stood at 250 µg/mL. In [1], the “Minimum Bactericidal and Fungicidal Concentration (MBC, MFC), Sa” value amounted to 15.6 µg/mL. Besides, in series [2], the “Minimum Bactericidal and Fungicidal Concentration (MBC, MFC), Ef” value was found to be 125 µg/mL; the “Minimum Inhibitory Concentration (MIC), Ef” value amounted to 31.3 µg/mL. Besides, the “Minimum Inhibitory Concentration (MIC), Bc” value in series [3] is recorded as 31.3 µg/mL. In addition, the “Minimum Inhibitory Concentration (MIC), Ec” value in series [6] is 250 µg/mL.

Turning to `CCCCCCCCCC[P+](C(C)(C)C)(C(C)(C)C)C(C)(C)C` [Compound 10a], the MBC in series [8] (Trichophyton mentagrophytes, read-out: Minimum Bactericidal and Fungicidal Concentration (MBC, MFC), Tm) is 125 ± 11 µg/mL; in series [9] (Candida albicans, ATCC10231, Ca, read-out: Minimum Bactericidal and Fungicidal Concentration (MBC, MFC), Ca), 31.3 ± 2.3 µg/mL; in [7] (Staphylococcus aureus, MRSA, MRSA-1, read-out: Minimum Bactericidal and Fungicidal Concentration (MBC, MFC), MRSA-1), 15.6 ± 1.2 µg/mL; in series [4] (Staphylococcus aureus, MRSA, MRSA-2, read-out: Minimum Bactericidal and Fungicidal Concentration (MBC, MFC), MRSA-2) it was 3.9 ± 0.2 µg/mL; in series [5], 31.3 ± 2.6 µg/mL; in series [2], 7.8 ± 0.6 µg/mL. The MIC in [8] (Trichophyton mentagrophytes, read-out: Minimum Inhibitory Concentration (MIC), Tm) turned out to be 125 ± 11 µg/mL; in series [9] (Candida albicans, ATCC10231, Ca, read-out: Minimum Inhibitory Concentration (MIC), Ca), 31.3 ± 2.6 µg/mL; in series [7] (Staphylococcus aureus, MRSA), 1.9 ± 0.1 µg/mL; in series [4] (Staphylococcus aureus, MRSA) it was 3.9 ± 0.2 µg/mL; in series [2], 7.8 ± 0.6 µg/mL; in series [3] (Bacillus cereus, Bc) it was 3.9 ± 0.2 µg/mL. Further, the MIC in [6] worked out at 31.3 ± 2.7 µg/mL. The “HC50 (concentration that causes 50% hemolysis of erythrocytes)” value with human erythrocytes is over 125 µg/mL. Also, the IC50 in the series with Chang liver cell line was found to be 66 µg/mL. Also, the “Minimum Bactericidal and Fungicidal Concentration (MBC, MFC), Sa” value in series [1] came out at 1.9 ± 0.1 µg/mL. For the same molecule, in [1], the “Minimum Inhibitory Concentration (MIC), Sa” value is listed as 1.9 ± 0.1 µg/mL. Besides, in [3], the “Minimum Bactericidal and Fungicidal Concentration (MBC, MFC), Bc” value amounted to 31.3 ± 2.5 µg/mL.

`CCCCCCCCCC[P+](C(C)(C)C)(C(C)(C)C)C(C)(C)C` [Compound 10b]: in [8], the “Minimum Bactericidal and Fungicidal Concentration (MBC, MFC), Tm” value turned out to be 125 ± 10 µg/mL; the “Minimum Inhibitory Concentration (MIC), Tm” value worked out at 125 ± 10 µg/mL. For the same molecule, in [9] (Ca), the “Minimum Bactericidal and Fungicidal Concentration (MBC, MFC), Ca” value was determined as 31.3 ± 2.2 µg/mL; the “Minimum Inhibitory Concentration (MIC), Ca” value is 31.3 ± 2.4 µg/mL. Also, the “HC50 (concentration that causes 50% hemolysis of erythrocytes)” value with human erythrocytes is over 125 µg/mL. Moreover, the “IC50 (concentration that causes the death of 50% of the cells)” value in the series on Chang liver cell line is 71 µg/mL. The “Minimum Inhibitory Concentration (MIC), MRSA-1” value in series [7] was determined as 1.9 ± 0.1 µg/mL. The “Minimum Bactericidal and Fungicidal Concentration (MBC, MFC), MRSA-1” value in series [7] (MRSA-1) came out at 15.6 ± 1.3 µg/mL. In addition, in series [4], the “Minimum Inhibitory Concentration (MIC), MRSA-2” value came out at 3.9 ± 0.2 µg/mL. Moreover, the “Minimum Bactericidal and Fungicidal Concentration (MBC, MFC), MRSA-2” value in [4] (MRSA-2) was found to be 7.8 ± 0.6 µg/mL. For the same molecule, the “Minimum Bactericidal and Fungicidal Concentration (MBC, MFC), Ec” value in series [5] was determined as 62.5 ± 5.5 µg/mL. Also, in series [1], the “Minimum Bactericidal and Fungicidal Concentration (MBC, MFC), Sa” value was 3.9 ± 0.2 µg/mL; the “Minimum Inhibitory Concentration (MIC), Sa” value is on record as 3.9 ± 0.2 µg/mL. Besides, in [2], the “Minimum Bactericidal and Fungicidal Concentration (MBC, MFC), Ef” value came to 15.6 ± 1.2 µg/mL; the “Minimum Inhibitory Concentration (MIC), Ef” value amounted to 15.6 ± 1.3 µg/mL. In [3], the “Minimum Bactericidal and Fungicidal Concentration (MBC, MFC), Bc” value is recorded as 125 ± 9 µg/mL; the “Minimum Inhibitory Concentration (MIC), Bc” value worked out at 7.8 ± 0.6 µg/mL. Further, the “Minimum Inhibitory Concentration (MIC), Ec” value in series [6] worked out at 62.5 ± 5.4 µg/mL.
